# Data taken from PubChem BioAssay (NCI).
#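 Values below derive from 48-hour exposures of cells grown in 96-well plates, with endpoints linearly interpolated between the two concentrations bracketing the appropriate inhibition level. Abbreviation: GI50, concentration required for 50% inhibition of growth. TGI marks complete inhibition of growth.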
# Assays:
# Assay in all cases: NCI-60 cell line screen, 48 h
# [1] = test system: 786-0 renal
# [2] = test system: NCI-H226 lung
# [3] = test system: UACC-257 melanoma
# [4] = test system: A549 NSCLC
# [5] = test system: RXF 393 renal
# [6] = test system: T-47D breast
# [7] = test system: PC-3 prostate
# [8] = test system: MDA-MB-231 breast
# [9] = test system: SK-OV-3 ovarian
# [10] = test system: SNB-19 CNS
# [11] = test system: M14 melanoma
# [12] = test system: SF-295 CNS
# [13] = test system: EKVX NSCLC
# [14] = test system: IGROV1 ovarian
# [15] = test system: HOP-62 NSCLC
# [16] = test system: UO-31 renal
# [17] = test system: OVCAR-4 ovarian
# [18] = test system: CCRF-CEM leukemia
# [19] = test system: SF-268 CNS
# [20] = test system: CAKI-1 renal
# [21] = test system: SF-539 CNS
# [22] = test system: HT29 colon
# [23] = test system: HOP-92 NSCLC
# [24] = test system: NCI-H460 lung
# [25] = test system: KM12 colon
# [26] = test system: MOLT-4 leukemia
# [27] = test system: LOX IMVI melanoma
# [28] = test system: MDA-MB-435
# [29] = test system: HCT-116 colon
# [30] = test system: OVCAR-3 ovarian
# [31] = test system: MDA-MB-468 breast
# [32] = test system: OVCAR-5 ovarian
# [33] = test system: COLO 205 colon
# [34] = test system: UACC-62 melanoma
# [35] = test system: HCC-2998 colon
# [36] = test system: NCI-H23 lung
# [37] = test system: RPMI-8226 leukemia
# [38] = test system: HS 578T breast
# [39] = test system: HL-60(TB) leukemia
# [40] = test system: SNB-75 CNS
# [41] = test system: NCI-H522 lung
# [42] = test system: OVCAR-8 ovarian
# [43] = test system: TK-10 renal
# [44] = test system: HCT-15 colon
# [45] = test system: ACHN renal
# [46] = test system: A498 renal
# [47] = test system: DU-145 prostate
# [48] = test system: MALME-3M melanoma
# [49] = test system: SK-MEL-5 melanoma
# [50] = test system: BT-549 breast
# [51] = test system: U251 CNS
# [52] = test system: SR leukemia
# [53] = test system: SK-MEL-28 melanoma
# [54] = test system: K-562 leukemia
# [55] = test system: SN12C renal
# [56] = test system: SW-620 colon
# [57] = test system: MCF7 breast
compound,measurement,setting,value
CC(C)Sc1nc(NCCc2c[nH]c3ccccc23)c(C#N)c(-c2ccccc2)n1,GI50,[1],12.6 µM
same,TGI,[1],30.5 µM
same,GI50,[2],13 µM
same,TGI,[2],27.3 µM
same,GI50,[3],18.8 µM
same,TGI,[3],41.8 µM
same,GI50,[4],18.4 µM
same,TGI,[4],42.5 µM
same,GI50,[5],6.66 µM
same,TGI,[5],20.3 µM
same,GI50,[6],6.54 µM
same,TGI,[6],20.8 µM
same,GI50,[7],7.08 µM
same,TGI,[7],43.8 µM
same,GI50,[8],11.8 µM
same,TGI,[8],27.3 µM
same,GI50,[9],17.5 µM
same,TGI,[9],45.4 µM
same,GI50,[10],15.8 µM
same,TGI,[10],33.3 µM
same,GI50,[11],13.8 µM
same,TGI,[11],28.4 µM
same,GI50,[12],13.7 µM
same,TGI,[12],29.6 µM
same,GI50,[13],12.1 µM
same,TGI,[13],31.1 µM
same,GI50,[14],16.6 µM
same,TGI,[14],32 µM
same,GI50,[15],13.5 µM
same,TGI,[15],27.8 µM
same,GI50,[16],14.3 µM
same,TGI,[16],31.2 µM
same,GI50,[17],13.4 µM
same,TGI,[17],36.4 µM
same,GI50,[18],9.41 µM
same,TGI,[18],> 100 µM
same,GI50,[19],18.4 µM
same,TGI,[19],48.3 µM
same,GI50,[20],11.2 µM
same,TGI,[20],26 µM
same,GI50,[21],13 µM
same,TGI,[21],27 µM
same,GI50,[22],5.57 µM
same,TGI,[22],18.9 µM
same,GI50,[23],14.7 µM
same,TGI,[23],33.7 µM
same,GI50,[24],8.41 µM
same,TGI,[24],27.9 µM
same,GI50,[25],5.54 µM
same,TGI,[25],22.1 µM
same,GI50,[26],9.21 µM
same,TGI,[26],> 100 µM
same,GI50,[27],4.57 µM
same,TGI,[27],15.3 µM
same,GI50,[28],14.4 µM
same,TGI,[28],28.2 µM
same,GI50,[29],5.17 µM
same,TGI,[29],18.5 µM
same,GI50,[30],15.8 µM
same,TGI,[30],30.8 µM
same,GI50,[31],3.12 µM
same,TGI,[31],9.98 µM
same,GI50,[32],12.1 µM
same,TGI,[32],25.2 µM
same,GI50,[33],8.37 µM
same,TGI,[33],21.2 µM
same,GI50,[34],14.4 µM
same,TGI,[34],27.6 µM
same,GI50,[35],10 µM
same,TGI,[35],22.6 µM
same,GI50,[36],15.5 µM
same,TGI,[36],30.7 µM
same,GI50,[37],11.4 µM
same,TGI,[37],> 100 µM
same,GI50,[38],14.8 µM
same,TGI,[38],56.1 µM
same,GI50,[39],13.5 µM
same,TGI,[39],> 100 µM
same,GI50,[40],17.8 µM
same,TGI,[40],56.9 µM
same,GI50,[41],15.3 µM
same,TGI,[41],30.9 µM
same,GI50,[42],18.2 µM
same,TGI,[42],51.4 µM
same,GI50,[43],22.8 µM
same,TGI,[43],46.8 µM
same,GI50,[44],5.38 µM
same,TGI,[44],18.2 µM
same,GI50,[45],14.3 µM
same,TGI,[45],28 µM
same,GI50,[46],15.1 µM
same,TGI,[46],29.5 µM
same,GI50,[47],14.9 µM
same,TGI,[47],34.8 µM
same,GI50,[48],16.5 µM
same,TGI,[48],30.7 µM
same,GI50,[49],11.4 µM
same,TGI,[49],23.6 µM
same,GI50,[50],13.2 µM
same,TGI,[50],26.6 µM
same,GI50,[51],11.6 µM
same,TGI,[51],24.4 µM
same,GI50,[52],5.25 µM
same,TGI,[52],> 100 µM
same,GI50,[53],14.4 µM
same,TGI,[53],28.6 µM
same,GI50,[54],4.85 µM
same,TGI,[54],> 100 µM
same,GI50,[55],13.3 µM
same,TGI,[55],26.2 µM
same,GI50,[56],10.3 µM
same,TGI,[56],26 µM
same,GI50,[57],11.3 µM
same,TGI,[57],25.4 µM
